Data as given in patent US10870638B2, “Pyridazinone compound or its salt, and herbicide containing it” (ISHIHARA SANGYO KAISHA, LTD., priority 2016, dated 2020).

Tests used:
Format in all cases: in vivo
Conditions in all cases: active ingredient amount 31 g/ha, 14th day after application
[1] = test system: barnyardgrass (Echinochloa crus-qalli L.); assay: Test Example 1: foliar treatment, growth inhibition rate on 14th day
Summary of the method: (§1)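 Visual 0–100% inhibition scoring (100 = complete kill) at 14 days after foliar treatment of soil-grown seedlings at species-specific leaf stages, with the compound sprayed as a wettable powder or emulsifiable concentrate dilution.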

corn (Zea mays L.) [2] = assay: as above
Summary of the method: as §1

[3] = test system: crabgrass (Digitaria sanquinalis L.); assay: as above
Summary of the method: as §1

[4] = test system: green foxtail (Setaria viridis L.); assay: as above
Summary of the method: as §1

[5] = test system: italian ryegrass (Lolium multiflorum Lam.); assay: as above
Summary of the method: as §1

[6] = test system: redroot pigweed (Amaranthus retroflexus L.); assay: as above
Summary of the method: as §1

rice (Oryza sativa L.) [7] = assay: as above
Summary of the method: as §1

[8] = test system: soybean (Glycine max Merr.); assay: as above
Summary of the method: as §1

[9] = test system: wheat (Triticum aestivum L.); assay: as above
Summary of the method: as §1

[10] = test system: wild oat (Avena fatua L.); assay: as above
Summary of the method: as §1

[11] = test system: barnyardgrass (Echinochloa crus-qalli L.); assay: Test Example 2: soil application on the day after sowing, growth inhibition rate on 14th day
Summary of the method: (§2)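 Upland soil pots; sowing, then next-day soil spraying of compound formulations (1,000 L/ha water) at defined a.i. doses. Day-14 visual rating of inhibition on a 0–100 scale, where 100 means complete kill.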

corn (Zea mays L.) [12] = assay: as above
Summary of the method: as §2

[13] = test system: crabgrass (Digitaris sanquinalis L.); assay: as above
Summary of the method: as §2

[14] = test system: green foxtail (Setaria viridis L.); assay: as above
Summary of the method: as §2

[15] = test system: prickly sida (Sida spinosa L.); assay: as above
Summary of the method: as §2

[16] = test system: redroot pigweed (Amaranthus retroflexus L.); assay: as above
Summary of the method: as §2

rice (Oryza sativa L.) [17] = assay: as above
Summary of the method: as §2

[18] = test system: soybean (Glycine max Merr.); assay: as above
Summary of the method: as §2

[19] = test system: velvetleaf (Abutilon theophrasti MEDIC.); assay: as above
Summary of the method: as §2

[20] = test system: wheat (Triticum aestivum L.); assay: as above
Summary of the method: as §2

In the case of `CCc1ccc(Oc2ncc(C(F)(F)F)cc2Cl)cc1-c1c(O)cnn(CC)c1=O` [1-173], the “Growth inhibition rate (%) Barnyardgrass” value [1] is reported as 100%, the “Growth inhibition rate (%) Corn” value (corn (Zea mays L.) [2]) is reported as 99% and the “Growth inhibition rate (%) Crabgrass” value [3] is reported as 100%. For the same compound, the “Growth inhibition rate (%) Green foxtail” value [4] was 100%, the “Growth inhibition rate (%) Italian ryegrass” value [5] was 95% and the “Growth inhibition rate (%) Redroot pigweed” value [6] was 0%. The “Growth inhibition rate (%) Rice” value (rice (Oryza sativa L.) [7]) was 60%, the “Growth inhibition rate (%) Soybean” value [8] was 0% and the “Growth inhibition rate (%) Wheat” value [9] was 35%. For the same compound, the “Growth inhibition rate (%) Wild oat” value [10] was 100%, the “Growth inhibition rate (%) Barnyardgrass” value [11] was 100% and the “Growth inhibition rate (%) Corn” value (corn (Zea mays L.) [12]) was 50%. The “Growth inhibition rate (%) Crabgrass” value [13] was 100%, the “Growth inhibition rate (%) Green foxtail” value [14] was 100% and the “Growth inhibition rate (%) Prickly sida” value [15] was 0%. The “Growth inhibition rate (%) Redroot pigweed” value [16] was 0%, the “Growth inhibition rate (%) Rice” value (rice (Oryza sativa L.) [17]) was 60% and the “Growth inhibition rate (%) Soybean” value [18] was 0%. The “Growth inhibition rate (%) Velvetleaf” value [19] was 0% and the “Growth inhibition rate (%) Wheat” value [20] was 0%.
For `CC(=O)Oc1cnn(C(C)C)c(=O)c1-c1cc(Oc2nc3ccc(Cl)cc3o2)ccc1C` [Compound 2-172], the “Growth inhibition rate (%) Barnyardgrass” value [1] was 100%, the “Growth inhibition rate (%) Corn” value (corn (Zea mays L.) [2]) was 98% and the “Growth inhibition rate (%) Crabgrass” value [3] was 98%. The “Growth inhibition rate (%) Green foxtail” value [4] was 99%, the “Growth inhibition rate (%) Italian ryegrass” value [5] was 35% and the “Growth inhibition rate (%) Redroot pigweed” value [6] was 0%. For the same compound, the “Growth inhibition rate (%) Rice” value (rice (Oryza sativa L.) [7]) was 30%, the “Growth inhibition rate (%) Soybean” value [8] was 40% and the “Growth inhibition rate (%) Wheat” value [9] was 10%. The “Growth inhibition rate (%) Wild oat” value [10] was 40%, the “Growth inhibition rate (%) Barnyardgrass” value [11] was 60% and the “Growth inhibition rate (%) Corn” value (corn (Zea mays L.) [12]) was 0%. For the same compound, the “Growth inhibition rate (%) Crabgrass” value [13] was 30%, the “Growth inhibition rate (%) Green foxtail” value [14] was 20% and the “Growth inhibition rate (%) Prickly sida” value [15] was 0%. The “Growth inhibition rate (%) Redroot pigweed” value [16] was 0%, the “Growth inhibition rate (%) Rice” value (rice (Oryza sativa L.) [17]) was 0% and the “Growth inhibition rate (%) Soybean” value [18] was 0%. The “Growth inhibition rate (%) Velvetleaf” value [19] was 0% and the “Growth inhibition rate (%) Wheat” value [20] was 0%.
`CCc1ccc(Oc2ncc(C(F)(F)F)cc2Cl)cc1-c1c(O)c(C)nn(C)c1=O` [1-3] was tested, and the “Growth inhibition rate (%) Barnyardgrass” value [1] was 100%, the “Growth inhibition rate (%) Corn” value (corn (Zea mays L.) [2]) was 99% and the “Growth inhibition rate (%) Crabgrass” value [3] was 99%. The “Growth inhibition rate (%) Green foxtail” value [4] was 100%, the “Growth inhibition rate (%) Italian ryegrass” value [5] was 98% and the “Growth inhibition rate (%) Redroot pigweed” value [6] was 0%. The “Growth inhibition rate (%) Rice” value (rice (Oryza sativa L.) [7]) was 75%, the “Growth inhibition rate (%) Soybean” value [8] was 15% and the “Growth inhibition rate (%) Wheat” value [9] was 15%. The “Growth inhibition rate (%) Wild oat” value [10] was 98%, the “Growth inhibition rate (%) Barnyardgrass” value [11] was 100% and the “Growth inhibition rate (%) Corn” value (corn (Zea mays L.) [12]) was 90%. For the same compound, the “Growth inhibition rate (%) Crabgrass” value [13] was 100%, the “Growth inhibition rate (%) Green foxtail” value [14] was 100% and the “Growth inhibition rate (%) Prickly sida” value [15] was 0%. The “Growth inhibition rate (%) Redroot pigweed” value [16] was 0%, the “Growth inhibition rate (%) Rice” value (rice (Oryza sativa L.) [17]) was 80% and the “Growth inhibition rate (%) Soybean” value [18] was 0%. The “Growth inhibition rate (%) Velvetleaf” value [19] was 0% and the “Growth inhibition rate (%) Wheat” value [20] was 35%.
`Cc1c(Oc2ncc(C(F)(F)F)cc2Cl)cccc1-c1c(O)cnn(CC2CC2)c1=O` [1-166] was tested, and the “Growth inhibition rate (%) Barnyardgrass” value [1] was 95%, the “Growth inhibition rate (%) Corn” value (corn (Zea mays L.) [2]) was 98% and the “Growth inhibition rate (%) Crabgrass” value [3] was 99%. For the same compound, the “Growth inhibition rate (%) Green foxtail” value [4] was 100%, the “Growth inhibition rate (%) Italian ryegrass” value [5] was 30% and the “Growth inhibition rate (%) Redroot pigweed” value [6] was 0%. For the same compound, the “Growth inhibition rate (%) Rice” value (rice (Oryza sativa L.) [7]) was 10%, the “Growth inhibition rate (%) Soybean” value [8] was 15% and the “Growth inhibition rate (%) Wheat” value [9] was 10%. The “Growth inhibition rate (%) Wild oat” value [10] was 93%, the “Growth inhibition rate (%) Barnyardgrass” value [11] was 80% and the “Growth inhibition rate (%) Corn” value (corn (Zea mays L.) [12]) was 0%. The “Growth inhibition rate (%) Crabgrass” value [13] was 95%, the “Growth inhibition rate (%) Green foxtail” value [14] was 80% and the “Growth inhibition rate (%) Prickly sida” value [15] was 0%. For the same compound, the “Growth inhibition rate (%) Redroot pigweed” value [16] was 0%, the “Growth inhibition rate (%) Rice” value (rice (Oryza sativa L.) [17]) was 0% and the “Growth inhibition rate (%) Soybean” value [18] was 0%. For the same compound, the “Growth inhibition rate (%) Velvetleaf” value [19] was 0% and the “Growth inhibition rate (%) Wheat” value [20] was 0%.
